#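 Results reflect a 48-hour exposure of cells in 96-well plates to compound at five concentrations. GI50 is the concentration that inhibits growth by half.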 Activity calls are given as the source filed them. Rule as the data show it: active = GI50 up to about 1.1 µM and inactive = higher.
# Columns and labels:
# Assay in all cases: DTP human tumour cell line panel, 48 h
# A549 = tested on: A549
# CAKI-1 = tested on: CAKI-1
# CCRF-CEM = tested on: CCRF-CEM
# COLO 205 = tested on: COLO 205
# HCT-116 = tested on: HCT-116
# HL-60 = tested on: HL-60
# HOP-62 = tested on: HOP-62
# HOP-92 = tested on: HOP-92
# IGROV-1 = tested on: IGROV-1
# LOX IMVI = tested on: LOX IMVI
# NCI-H226 = tested on: NCI-H226
# NCI-H23 = tested on: NCI-H23
# NCI-H522 = tested on: NCI-H522
# OVCAR-5 = tested on: OVCAR-5
# SF-295 = tested on: SF-295
# SK-MEL-2 = tested on: SK-MEL-2
# SK-MEL-5 = tested on: SK-MEL-5
# SK-OV-3 = tested on: SK-OV-3
# SNB-19 = tested on: SNB-19
# UACC-257 = tested on: UACC-257
SMILES,GI50 (A549),GI50 (CAKI-1),GI50 (CCRF-CEM),GI50 (COLO 205),GI50 (HCT-116),GI50 (HL-60),GI50 (HOP-62),GI50 (HOP-92),GI50 (IGROV-1),GI50 (LOX IMVI),GI50 (NCI-H226),GI50 (NCI-H23),GI50 (NCI-H522),GI50 (OVCAR-5),GI50 (SF-295),GI50 (SK-MEL-2),GI50 (SK-MEL-5),GI50 (SK-OV-3),GI50 (SNB-19),GI50 (UACC-257)
COC1(O)c2cccc(Cl)c2C(=O)N1C1(C(N)=O)CCCCC1 (stereo not given),> 100 µM (inactive),> 100 µM (inactive),> 100 µM (inactive),> 100 µM (inactive),> 100 µM (inactive),> 100 µM (inactive),> 100 µM (inactive),24.4 µM (inactive),> 100 µM (inactive),> 100 µM (inactive),> 100 µM (inactive),> 37.5 µM (inactive),> 100 µM (inactive),> 100 µM (inactive),> 100 µM (inactive),> 100 µM (inactive),> 100 µM (inactive),> 100 µM (inactive),> 100 µM (inactive),> 100 µM (inactive)
COc1ccc(C[C@H]2COC(=O)[C@@H]2Cc2cccc(Br)c2)cc1OC,32.9 µM (inactive),15.3 µM (inactive),5.11 µM (inactive),14 µM (inactive),12.8 µM (inactive),12.2 µM (inactive),31.4 µM (inactive),12.1 µM (inactive),31.6 µM (inactive),3.85 µM (inactive),29.9 µM (inactive),21.2 µM (inactive),19.5 µM (inactive),33.1 µM (inactive),32.7 µM (inactive),26 µM (inactive),15.7 µM (inactive),26.6 µM (inactive),52 µM (inactive),21.5 µM (inactive)
Cc1c2ccncc2c(C)c2c1[nH]c1ccc(OCCN(C)C)cc12,0.198 µM (active),0.463 µM (active),0.024 µM (active),0.357 µM (active),0.0455 µM (active),0.136 µM (active),0.671 µM (active),0.583 µM (active),0.388 µM (active),0.063 µM (active),0.365 µM (active),0.416 µM (active),0.391 µM (active),0.433 µM (active),0.125 µM (active),0.658 µM (active),1.35 µM (inactive),0.501 µM (active),0.256 µM (active),0.92 µM (active)
O=C1CCCC1C(O)(C(F)(F)Cl)C(F)(F)Cl (stereo not given),> 10 µM (inactive),> 10 µM (inactive),> 10 µM (inactive),> 10 µM (inactive),> 10 µM (inactive),> 10 µM (inactive),> 10 µM (inactive),> 10 µM (inactive),> 10 µM (inactive),> 10 µM (inactive),> 10 µM (inactive),> 10 µM (inactive),> 10 µM (inactive),> 10 µM (inactive),> 10 µM (inactive),> 10 µM (inactive),> 10 µM (inactive),> 10 µM (inactive),> 10 µM (inactive),> 10 µM (inactive)

# Reference: ChEMBL document CHEMBL1201862, “PubChem BioAssay data set” (2004)
